This is an account of results in BindingDB's records for doi:10.1016/S0960-894X(98)00544-7 (University of Ferrara, 1999).

The assay is described as follows: Inhibition of Ha-ras polymerase-chain reaction product.

A word on the IC50: it is the midpoint of a concentration-inhibition curve. A lower IC50 goes with higher potency. As to `COC(=O)CCOc1cc2c(cc1OC)C(=O)N1CCC[C@H]1C=N2` [3-((S)-7-Methoxy-5-oxo-2,3,5,11a-tetrahydro-1H-benzo[e]pyrrolo[1,2-a][1,4]diazepin-8-yloxy)-propionic acid methyl ester], the IC50 was above 300 µM.
